Test results: patent US4804656A, “Novel androstane-17β-carboxylic acid esters” (Aktiebolaget Draco, priority 1985, dated 1989)

Target: T1, glucocorticoid receptor (Rattus norvegicus, UniProt P06536)
T1 construct: The thymus was removed and put into ice-cold saline; The tissue was homogenized in a Potter Elvehjem homogenizer; from tissue; host or cells: thymus of male Sprague-Dawley rats, 20,000×g supernatant of homogenate
T1 sequence (P06536 1-795): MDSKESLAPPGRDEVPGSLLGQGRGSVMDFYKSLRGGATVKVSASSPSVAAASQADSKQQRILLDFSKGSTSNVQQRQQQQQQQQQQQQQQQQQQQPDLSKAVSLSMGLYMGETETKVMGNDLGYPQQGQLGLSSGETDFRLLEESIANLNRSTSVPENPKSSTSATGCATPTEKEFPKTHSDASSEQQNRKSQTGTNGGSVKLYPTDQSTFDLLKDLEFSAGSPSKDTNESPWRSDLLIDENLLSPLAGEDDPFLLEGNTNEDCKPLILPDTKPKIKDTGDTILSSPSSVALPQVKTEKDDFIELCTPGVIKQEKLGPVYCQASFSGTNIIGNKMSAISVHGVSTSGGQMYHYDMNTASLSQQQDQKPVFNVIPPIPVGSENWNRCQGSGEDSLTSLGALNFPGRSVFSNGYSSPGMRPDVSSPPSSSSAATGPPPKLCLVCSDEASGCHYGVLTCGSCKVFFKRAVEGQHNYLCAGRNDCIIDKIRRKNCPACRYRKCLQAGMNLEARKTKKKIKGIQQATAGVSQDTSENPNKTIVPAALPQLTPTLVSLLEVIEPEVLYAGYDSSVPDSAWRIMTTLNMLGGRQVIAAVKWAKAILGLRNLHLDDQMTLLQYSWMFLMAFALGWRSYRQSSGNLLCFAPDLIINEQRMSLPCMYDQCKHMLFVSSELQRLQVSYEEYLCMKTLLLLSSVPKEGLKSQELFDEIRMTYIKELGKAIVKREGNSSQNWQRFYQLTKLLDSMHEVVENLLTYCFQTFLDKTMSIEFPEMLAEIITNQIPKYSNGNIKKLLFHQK
Test: Affinity to the glucocorticoid receptor: competition with 3H-labelled dexamethasone in rat thymus 20,000×g supernatant
Details: curves compared at the 50% specific binding level, referenced to budesonide = 1, 3 nM 3H-dexamethasone, about 24 h at 0° C.
Method: All steroids according to the present invention are physiologically active compounds. The affinity of the novel androstane-17β-carboxylic acid esters to the glucocorticoid receptor has been used as a model for determination of the anti-inflammatory potency.
Male Sprague-Dawley rats, one to two months of age, were used throughout the investigation. The thymus was removed and put into ice-cold saline. The tissue was homogenized in a Potter Elvehjem homogenizer in 10 ml of a buffer containing 20 mM Tris, pH 7.4, 10% (w/v) glycerol, 1 mM EDTA, 20 mM NaMoO4, 10 mM mercaptoethanol. The homogenate was centrifuged for 15 min at 20,000×g. Portions of the 20,000×g supernatant (230 μl) were incubated for about 24 h at 0° C. with 100 μl phenylmethylsulphonylfluoride (an esterase inhibitor, final conc. 0.5 mM), 20 μl unlabelled competitor and 50 μl ^3 H-labelled dexamethasone (final conc. 3 nM). Bound and free steroid were separated by incubating the mixture with 60 μl 2.5% (w/v) charcoal and 0.25% (w/v) dextran T70 suspension in […], pH 7.4, 1 mM EDTA, and […] for 10 min at 0° C. Following a centrifugation at 500×g for 10 min, 230 μl of the supernatant was counted in 10 ml Insta-Gel in a Packard scintillation spectrophotometer. The supernatants were incubated with a) [^3 H]dexamethasone alone, b) [^3 H] dexamethasone plus 1000 fold excess of unlabelled dexamethasone and c) [^3 H] dexamethasone plus 0.03-300 fold "excess" competitor. The nonspecific binding was determined when 1000 fold excess of unlabelled dexamethasone was added to [^3 H]-labelled dexamethasone.
The radioactivity bound to the receptor in the presence of competitor divided by the radioactivity bound to the receptor in the absence of competitor multiplied by 100 gives the percentage specific binding of labelled dexamethasone. For each concentration of a competitor the percentage specifically bound radioactivity is plotted against the log of concentration of competitor. The curves are compared at the 50% specific binding level and reference to budesonide, which is assigned a relative binding affinity (RBA) of 1.

SMILES	RBA (relative binding affinity)
CCOC(=O)OC(C)OC(=O)[C@@]1(OC(=O)CC)[C@@H](C)C[C@H]2[C@@H]3CCC4=CC(=O)C=C[C@]4(C)[C@@]3(F)[C@@H](O)C[C@@]21C (single isomer, unassigned) [1 (epimer B), 1'-ethoxycarbonyloxyethyl 9α-fluoro-11β-hydroxy-16β-methyl-3-oxo-17α-propionyloxyandrosta-1,4-diene-17β-carboxylate]	0.80
CCC(=O)O[C@]1(C(=O)OC(C)OC(=O)NC(C)C)[C@@H](C)C[C@H]2[C@@H]3CCC4=CC(=O)C=C[C@]4(C)[C@@]3(F)[C@@H](O)C[C@@]21C (single isomer, unassigned) [2 (epimer B), 1'-isopropylcarbamoyloxyethyl 9α-fluoro-11β-hydroxy-16β-methyl-3-oxo-17α-propionyloxyandrosta-1,4-diene-17β-carboxylate]	0.14
CCCCC(=O)O[C@]1(C(=O)OC(C)OC(=O)N(CC)CC)[C@@H](C)C[C@H]2[C@@H]3CCC4=CC(=O)C=C[C@]4(C)[C@@]3(F)[C@@H](O)C[C@@]21C (single isomer, unassigned) [3 (epimer B), 1'-diethylcarbamoyloxyethyl 9αfluoro-11β-hydroxy-16β-methyl-3-oxo-17α-valeroyloxyandrosta-1,4-diene-17β-carboxylate]	0.47
CCC(=O)O[C@]1(C(=O)OC(C)OC(C)=O)[C@@H](C)C[C@H]2[C@@H]3CCC4=CC(=O)C=C[C@]4(C)[C@@]3(F)[C@@H](O)C[C@@]21C (single isomer, unassigned) [4 (epimer B), 1'-acetyloxyethyl 9α-fluoro-11β-hydroxy-16β-methyl-3-oxo-17α-propionyloxyandrosta-1,4-diene-17β-carboxylate]	0.69
CCC(=O)O[C@]1(C(=O)OC(C)OC(=O)OCc2ccc([N+](=O)[O-])cc2)[C@@H](C)C[C@H]2[C@@H]3CCC4=CC(=O)C=C[C@]4(C)[C@@]3(F)[C@@H](O)C[C@@]21C (single isomer, unassigned) [Example 19b]	0.53
CCOC(=O)OC(C)OC(=O)[C@@]1(OC(=O)CC)[C@H](C)C[C@H]2[C@@H]3C[C@H](F)C4=CC(=O)C=C[C@]4(C)[C@@]3(F)[C@@H](O)C[C@@]21C (single isomer, unassigned) [Example 26b]	0.45
CCC(=O)O[C@]1(C(=O)OC(C)OC(=O)OC)[C@@H](C)C[C@H]2[C@@H]3CCC4=CC(=O)C=C[C@]4(C)[C@@]3(F)[C@@H](O)C[C@@]21C (stereo partly shown) [Example 6b]	0.42
CCCOC(=O)OC(C)OC(=O)[C@@]1(OC(=O)CC)[C@@H](C)C[C@H]2[C@@H]3CCC4=CC(=O)C=C[C@]4(C)[C@@]3(F)[C@@H](O)C[C@@]21C (stereo partly shown) [Example 7b]	0.95
CCC(=O)O[C@]1(C(=O)OC(C)OC(=O)OC(C)C)[C@@H](C)C[C@H]2[C@@H]3CCC4=CC(=O)C=C[C@]4(C)[C@@]3(F)[C@@H](O)C[C@@]21C (stereo partly shown) [Example 8b]	1.50
C=CCOC(=O)OC(C)OC(=O)[C@@]1(OC(=O)CC)[C@@H](C)C[C@H]2[C@@H]3CCC4=CC(=O)C=C[C@]4(C)[C@@]3(F)[C@@H](O)C[C@@]21C (stereo partly shown) [Example 9b]	0.39
CCC(=O)O[C@]1(C(=O)OC(C)OC(=O)OCC(C)C)[C@@H](C)C[C@H]2[C@@H]3CCC4=CC(=O)C=C[C@]4(C)[C@@]3(F)[C@@H](O)C[C@@]21C (stereo partly shown) [Example 10b]	0.82
CCC(=O)O[C@]1(C(=O)OC(C)OC(=O)OC2CCC2)[C@@H](C)C[C@H]2[C@@H]3CCC4=CC(=O)C=C[C@]4(C)[C@@]3(F)[C@@H](O)C[C@@]21C (stereo partly shown) [Example 13b]	1.3
CCC(=O)O[C@]1(C(=O)OC(C)OC(=O)OC2CCCC2)[C@@H](C)C[C@H]2[C@@H]3CCC4=CC(=O)C=C[C@]4(C)[C@@]3(F)[C@@H](O)C[C@@]21C (stereo partly shown) [Example 14b]	1.2
CCC(=O)O[C@]1(C(=O)OC(C)OC(=O)OC2CCCCC2)[C@@H](C)C[C@H]2[C@@H]3CCC4=CC(=O)C=C[C@]4(C)[C@@]3(F)[C@@H](O)C[C@@]21C (stereo partly shown) [Example 15b]	0.54
C=C(C)COC(=O)OC(C)OC(=O)[C@@]1(OC(=O)CC)[C@@H](C)C[C@H]2[C@@H]3CCC4=CC(=O)C=C[C@]4(C)[C@@]3(F)[C@@H](O)C[C@@]21C (stereo partly shown) [Example 16b]	0.51
CCCCC(=O)O[C@]1(C(=O)OC(C)OC(=O)OC(C)C)[C@@H](C)C[C@H]2[C@@H]3CCC4=CC(=O)C=C[C@]4(C)[C@@]3(F)[C@@H](O)C[C@@]21C (stereo partly shown) [Example 22b]	0.77
CCOC(=O)OC(C)OC(=O)[C@@]1(OC(=O)CC)[C@H](C)C[C@H]2[C@@H]3CCC4=CC(=O)C=C[C@]4(C)[C@@]3(F)[C@@H](O)C[C@@]21C (stereo partly shown) [Example 24b]	0.55
CCOC(=O)OC(C)OC(=O)[C@@]1(OC(=O)CC)[C@@H](C)C[C@H]2[C@@H]3CCC4=CC(=O)C=C[C@]4(C)[C@@]3(Cl)[C@@H](O)C[C@@]21C (stereo partly shown) [Example 28b]	1.0
CCC(=O)O[C@]1(C(=O)OC(C)OC(=O)OCC2CC2)[C@@H](C)C[C@H]2[C@@H]3CCC4=CC(=O)C=C[C@]4(C)[C@@]3(Cl)[C@@H](O)C[C@@]21C (stereo partly shown) [Example 32b]	0.86
